The subject of assay [1] is intracranial A375 tumors. Put plainly: Efficacy against intracranial A375 melanoma tumors (BLI, survival). It counts as in vivo, mice. On the procedure:
(§1) For subcutaneous xenograft models, 30 μL of cell suspension containing 3 × 10^6 A375 cells was injected into both flanks of FVB WT and Abcb1a/b;Abcg2 ^ −/− nude mice. For xenograft MBM models, stereotactic intracranial injections (A375 and Mel57) or intracarotid injections (K1735) of melanoma cells were performed as described previously. For intracranial injections, FVB nude mice were injected intracranially with 2 μL of A375 or Mel57 cell suspension containing 1 × 10^5 cells 2 mm lateral, 1 mm anterior, and 3 mm ventral from the bregma. For intracarotid injections, 1 × 10^5 cells in 100 μL HBSS were injected in the left common carotid artery of C3H/HeN mice. Tumor growth was measured by bioluminescence imaging (BLI) for intracranial tumors and by caliper for subcutaneous tumors. The volume of subcutaneous tumors was calculated in mm^3 using the modified ellipsoid formula (volume = 0.5 × length × width^2). Bioluminescence images were acquired following i.p. D‐luciferin (150 mg·kg^−1; Promega) using an IVIS 200 or IVIS Spectrum system with LIVING IMAGE software v4.5 (both PerkinElmer, Waltham, MA, USA). Animals were stratified into treatment groups to achieve a similar mean bioluminescence reading within each cohort. The bioluminescence intensity of each individual animal on the day of the start of treatment (Day 0) was arbitrarily set at 100%. All subsequent measurements were recorded relative to this first measurement and converted to their log values. Mean ± standard error (SE) values were calculated and plotted in graphs.
For the subcutaneous tumor model, therapy was initiated 2 weeks after implantation, when the tumor volume exceeded 40 mm^3. FVB WT and Abcb1a/b;Abcg2 ^ −/− nude mice (n = 8) received 25 and 10 mg·kg^−1 of vemurafenib daily, respectively. Control mice (n = 8) received vehicle. Tumor development was assessed by caliper twice a week. For the intracranial tumor model, treatment was started about 2 weeks after intracranial injection of tumor cells, when full‐blown tumors were present in all animals. WT and Abcb1a/b;Abcg2 ^ −/− nude mice received vehicle, 25 mg·kg^−1 vemurafenib, 10 mg·kg^−1 vemurafenib plus 100 mg·kg^−1 elacridar, or 10 mg·kg^−1 vemurafenib once daily for 10 consecutive days or in a 5 days on/2 days off/5 days on schedule, as indicated in the relevant figure panels. Tumor growth was monitored by BLI every 4 or 5 days. Mice were weighed daily weighed examined for abnormalities. The mice were humanely sacrificed based on BLI results or when weight loss exceeded 20% of the initial body weight.

For a further assay, the system named is subcutaneous A375 tumors. Put plainly: Efficacy against subcutaneous A375 tumors (caliper). It counts as in vivo. The note with it: 25 mg·kg^−1 in WT mice and 10 mg·kg^−1 in Abcb1a/b;Abcg2−/− mice, 13 consecutive days. On the procedure: as §1, with “Bioluminescence images were acquired following i.p. D‐luciferin (150 mg·kg^−1; Promega) using an IVIS 200 or IVIS Spectrum system with LIVING IMAGE software v4.5 (both PerkinElmer, Waltham, MA, USA).” left out, “The bioluminescence intensity of each individual animal on the day of the start of treatment (Day 0) was arbitrarily set at 100%.” left out
For the subcutaneous tumor model, therapy was initiated 2 weeks after implantation, when the tumor volume exceeded 40 mm^3. […] Tumor development was assessed by caliper twice a week. […]

In assay [2] the test system is intracranial A375 tumors. Kind of assay: Immunohistochemical analysis of vemurafenib‐resistant A375 melanoma brain metastases. In kind it is in vivo. Conditions: Abcb1a/b;Abcg2−/− mice, 10 mg·kg^−1 × 10d, vs untreated. On the procedure:
Mouse brains were fixed in 4% (v/v) formaldehyde. Alternatively, whole heads without skin were fixed in 4% (v/v) formaldehyde and 5% (v/v) glacial acetic acid and subsequently decalcified using a 6.5% (v/v) formic acid solution for 3 days at 37 °C. After fixation, samples were paraffin embedded and sliced into 4 μm thick sections. Whole head slides were stained for hematoxylin and eosin (H&E), human vimentin (1 : 4000; M0725; DakoCytomation, Glostrup, Denmark), P‐gp (1 : 200; 13978; Cell Signaling Technology, Danvers, MA, USA), BCRP (1 : 400; ab24115; Abcam, Cambridge, UK), and CD31 (1 : 200; ab28364; Abcam). Vessel positivity for P‐gp, BCRP, and CD31, as quantified in Fig. 1B, was manually scored in at least 200 vessels per staining. Specific antibody staining for P‐gp and BCRP was validated previously using whole head slices from Abcb1a/b;Abcg2 ^ −/− mice (fig. S2 from).
Brain slides were stained for H&E, PDGFRβ (1 : 50; 3169; Cell Signaling Technology), phospho‐MET (1 : 150; 3077; Cell Signaling Technology), MET (1 : 100; AF527; R&D Systems, Minneapolis, MN, USA), phospho‐IGF1R (1 : 40 000; sc‐101703; Santa Cruz Biotechnology, Dallas, TX, USA), AXL (1 : 100; 8661; Cell Signaling Technology), NGFR (1 : 400; 8238; Cell Signaling Technology), phospho‐EGFR (1 : 600; ab40815; Abcam), EGFR (1 : 200; ab52894; Abcam), BRAF^V600E (1 : 100; E19290; SpringBioscience, Pleasanton, CA, USA), phospho‐ERK1/2 (1 : 200; 4370; Cell Signaling Technology), phospho‐AKT (1 : 8000; 4060; Cell Signaling Technology), phospho‐S6 (1 : 1000; 2211; Cell Signaling Technology), phospho‐4EBP1 (1 : 100; 2855; Cell Signaling Technology), 4EBP1 (1 : 1200; 9644; Cell Signaling Technology), SOX10 (1 : 100; sc‐17342; Santa Cruz Biotechnology), MITF (1 : 100; 284 M‐94; Cell Marque, Rocklin, CA, USA), and Ki‐67 (1 : 3000; ab15580; Abcam).

Turning to `CCCS(=O)(=O)Nc1ccc(F)c(C(=O)c2c[nH]c3ncc(-c4ccc(Cl)cc4)cc23)c1F` [vemurafenib], the survival result is recorded as “not significantly extended” with intracranial A375 tumors [1] (Abcb1a/b;Abcg2−/− mice, 10 mg·kg^−1 q.d. × 10d) and “a survival difference was already established” in the assay with intracranial A375 tumors [1] (Abcb1a/b;Abcg2−/− mice, two cycles of 5 days of 25 mg·kg^−1 daily oral, vs vehicle). Also, the “tumor growth of intracranial A375 tumors” value with intracranial A375 tumors [1] (Abcb1a/b;Abcg2−/− mice, 10 mg·kg^−1 q.d. × 10d, first 3 days of treatment, regrowth under therapy afterwards) was “induced tumor regression”; with intracranial A375 tumors [1] (Abcb1a/b;Abcg2−/− mice, two cycles of 5 days of 25 mg·kg^−1 daily oral), “induced regression and subsequent tumor stasis”; in the assay on intracranial A375 tumors [1] (WT mice, 25 mg·kg^−1 q.d. × 10d), “only reduced A375 growth speed”. Also, the “antitumor efficacy against intracranial A375 tumors with pharmacological P‐gp/BCRP inhibition vs Abcb1a/b;Abcg2−/− mice at same dose” value with intracranial A375 tumors [1] (WT mice, 10 mg·kg^−1 vemurafenib + 100 mg·kg^−1 elacridar) is “less efficacious”. Moreover, the “efficacy against subcutaneous A375 tumors, WT vs Abcb1a/b;Abcg2−/− mice” value in the assay on subcutaneous A375 tumors is on record as “equally effective”. For the same compound, the “PDGFRβ expression (immunohistochemistry)” value in the assay on intracranial A375 tumors [2] was “appeared to be diminished”. Moreover, the “proliferation marker Ki‐67 (immunohistochemistry)” value in the assay on intracranial A375 tumors [2] was “similarly unaffected”. Besides, in the assay with intracranial A375 tumors [2] (n = 2 per group), the “immunohistochemical staining of phospho‐S6 and phospho‐4EBP1” value is “profoundly reduced”.

(Values after article PMC10761933, “Acquired and intrinsic resistance to vemurafenib in BRAF^V600E ‐driven melanoma brain metastases” (FEBS Open Bio, 2023).)
